Experimental findings from ChEMBL document CHEMBL3507680, “University of Dundee, Gates Library screen for HepG2 cell viability” are described below.

This data set is described as follows: Human HepG2 cell viability assay in 384 well format. The class given is toxicity, cell-based. Conditions: HepG2 cells, read-out: Inhibition. On the set-up: dose 125 nL, time 70.5 hour; concentration not given beside the values.
As to `Cc1oncc1C(=O)NCc1cc(=O)n2c(n1)CN(CC(C)C)CCC2`, the cytotoxicity at 70.5 h worked out at 22.7%.
Next, `O=C([C@@H]1C[C@@H]2CCN(CCc3ccccc3)C[C@H]2O1)N1CCCC1`: -3.84%; `CN(CC(F)(F)F)C(=O)CNC(=O)Cc1cccc(O)c1`: 1.12%.
To `O=C(NCc1ccco1)c1[nH]nc2c1CS(=O)(=O)CC2` belongs 22.5%.
For the compound `Cc1nccn1CCC1CCN(C(C)C)CC1`, the cytotoxicity at 70.5 h was -2.75%.
As for `O=C(NC1CCCOc2cc(Cl)ccc21)c1ccc(=O)[nH]n1` (stereo unspecified), the cytotoxicity at 70.5 h is -13.7%.
Next, `Cc1c(CNCC(C)Oc2cccnc2)c2ccccc2n1CC(N)=O` (stereo unspecified): 2.14%; `OCc1cn(CC2CCN(C3CCSC3)CC2)nn1` (stereo unspecified): -8.28%.
Regarding `COc1ncccc1CNC(=O)N1CCC(CNC(C)=O)CC1`, the cytotoxicity at 70.5 h is -8.01%.
To `N#Cc1cccc(N2CCC3(CC2)Nc2ccccc2NC3=O)n1` belongs -5.8%; to `NC(=O)c1c(NC(=O)CCC(=O)O)sc2c1CCc1ccccc1-2`, -9.16%; to `O=C(CCN1C[C@H]2CC[C@@H]1CN(c1ncccn1)C2)NCc1ccco1`, 27.5%.
In the case of `COCCN(C/C=C/c1ccccc1)Cc1nccs1`, the cytotoxicity at 70.5 h turned out to be 2.82%.
To `Cc1ccc2c(n1)N(CCN(C)C)CCN(C(=O)c1ccsc1)C2` belongs -5.53%; to `CCn1cc(CN2CCCN(C(=O)C3(C)CCOCC3)CC2)cn1`, -10.2%; to `Cc1cccc(N2CC3(CCN(Cc4nccn4C)C3)CC2=O)c1` (stereo unspecified), -8.56%.
For `COc1ccc(S(=O)(=O)NCC(c2cccn2C)N(C)C)cc1F` (stereo unspecified), the cytotoxicity at 70.5 h was -8.8%.
With `Cc1ccc(NC2CCN(C(=O)c3cc(C)sc3C)CC2)nn1`, the cytotoxicity at 70.5 h was -11.8%.
`CN1CCN(Cc2cnc3n2CCN(C(=O)c2ccncc2)C3)CC1`: the cytotoxicity at 70.5 h is -10.3%.
As to `CN1C(=O)[C@H](OC(N)=O)[C@@H](C(=O)Nc2ccccc2)C12CCNCC2`, the cytotoxicity at 70.5 h was -10.7%.
`CCOCc1nnc(NCc2cccnc2)o1`: the cytotoxicity at 70.5 h was -7.36%.
`Cc1cc(C)n(CCNCc2cc(-c3ccc(Cl)cc3)c[nH]c2=O)n1`: the cytotoxicity at 70.5 h is -3.88%.
As to `Cc1cc(=O)n(CC(=O)NC(C)C)c(Nc2ccc(F)c(C)c2)n1`, the cytotoxicity at 70.5 h was 23.2%.
In the case of `CN(C)CCn1ccc2cc(NC(=O)NCc3ccon3)ccc21`, the cytotoxicity at 70.5 h was -8.32%.
For the compound `COc1cccc2c1ccn2CC(=O)N[C@@H](CCSC)C(=O)O`, the cytotoxicity at 70.5 h is -3.11%.
On to `Cc1ccc(N2CCCC3(COCCN(c4cnccn4)C3)C2)nn1` (stereo unspecified), for which the cytotoxicity at 70.5 h was -0.306%.
As for `COc1coc(C(=O)Nc2nc(-c3ccncc3)cs2)cc1=O`, the cytotoxicity at 70.5 h is -11.9%.
As to `Cc1noc(C)c1-c1nc(C2CCCNC2)ccc1CO` (stereo unspecified), the cytotoxicity at 70.5 h is -5.83%.
Consider `Cc1ccc(C2CSCCN2C(=O)c2ccnc(N(C)C)c2)o1` (stereo unspecified), for which the cytotoxicity at 70.5 h stood at 18.6%.
As for `CC(NC(=O)Nc1cccnc1N1CCCC1)c1nncn1C` (stereo unspecified), the cytotoxicity at 70.5 h is -13.7%.
Turning to `O=C(N1CCC(O)(C(F)(F)F)C1)C1(c2cccc(Cl)c2)CC1` (stereo unspecified), the cytotoxicity at 70.5 h was -9.29%.
Next, `CCc1nc(C2CCCN2CCc2ccccn2)no1` (stereo unspecified): 24.9%; `O=C(c1cc(=O)[nH][nH]1)N1CCCC2(CCC(=O)N(C3CCCC3)C2)C1` (stereo unspecified): -5.45%; `O=S(=O)(NCC1COc2ccccc2C1)N1CCCCC1` (stereo unspecified): -9.29%.
For the compound `Cc1cccc(C(=O)N2CCn3cnc(COCC4CC4)c3C2)n1`, the cytotoxicity at 70.5 h was -2.97%.
For the compound `O[C@@H]1CN(CC2CC2)CC[C@H]1N1CCN(c2ccccc2F)CC1`, the cytotoxicity at 70.5 h amounted to 0.0849%.
Take `COCCN1CCC(CNC(=O)c2c[nH]c(=O)c(Cl)c2)CC1`: the cytotoxicity at 70.5 h is -10.5%.
Turning to `O=C(CCn1ncc2c(Cl)cccc21)NCCCn1cccn1`, the cytotoxicity at 70.5 h is -5.51%.
Regarding `COc1ccc(S(=O)(=O)NC(=O)c2ccccc2F)cc1OC`, the cytotoxicity at 70.5 h came to 1.07%.
For the compound `OCC(O)CSCc1cn(-c2ccc(Cl)cc2)nn1` (stereo unspecified), the cytotoxicity at 70.5 h was determined as 0.0879%.
Turning to `c1ccc(CN(Cc2cccc3cnccc23)CC2CCCO2)nc1` (stereo unspecified), the cytotoxicity at 70.5 h is -7.22%.
In the case of `Cc1nnc(N2CCC(CCN(C)C)CC2)c(C#N)c1C`, the cytotoxicity at 70.5 h is -11.2%.
Regarding `Cc1cccc(COC2COC3(CCN(Cc4ccoc4)CC3)C2)n1` (stereo unspecified), the cytotoxicity at 70.5 h is -16.1%.
Take `O=C(NCc1ccco1)[C@H]1C[C@H]2OCC[C@H]2N(C(=O)c2ccnnc2)C1`: the cytotoxicity at 70.5 h was -12.6%.
For the compound `COc1ccccc1OC1CCN(Cc2cccnc2)CC1`, the cytotoxicity at 70.5 h is -3.86%.
For the compound `CCCn1cc(CNCC(c2ccc(C)s2)N2CCOCC2)cn1` (stereo unspecified), the cytotoxicity at 70.5 h was 8.59%.
Consider `CC(C)c1cc(N2CCC[C@H](N)C2)n2nccc2n1`, for which the cytotoxicity at 70.5 h is -4.66%.
To `CN(C)CC1(O)CCCN(C(=O)CCn2cc(Cl)cn2)C1` (stereo unspecified) belongs 26.8%; to `CC(Cn1cncn1)NC(=O)NCC(C)(C)Cc1ccccc1` (stereo unspecified), -4.62%.
Turning to `COc1ccc(COCC(O)CNC(=O)c2ccc(C#N)cc2)cc1` (stereo unspecified), the cytotoxicity at 70.5 h was -5.39%.
As to `CCOCCN1CCN(Cc2cccc(C(=O)N(C)C)c2)CC1`, the cytotoxicity at 70.5 h is 40.4%.
Turning to `O=C(N1CCOCC1)[C@@]12CCO[C@@H]1CCN(Cc1cccc(F)c1)C2`, the cytotoxicity at 70.5 h is -8.34%.
For `Cc1cc(C(F)(F)F)nc(CCNC(C)Cn2cncn2)n1` (stereo unspecified), the cytotoxicity at 70.5 h was -11.4%.
In the case of `CC(C)Sc1ncccc1C(=O)NCc1cccc(N(C)C)c1`, the cytotoxicity at 70.5 h was determined as 0.244%.
With `CC(C)C1CN(C(=O)c2ccn(C)c(=O)c2)c2ccccc2N1` (stereo unspecified), the cytotoxicity at 70.5 h is -0.488%.
`CCn1c(CC2CCN(C(=O)C3COCCO3)CC2)nn(C)c1=O` (stereo unspecified): the cytotoxicity at 70.5 h was found to be 42.7%.
Consider `COCCN(C)CC(=O)N1CCCC2(CCC(=O)N(CC3CC3)C2)C1` (stereo unspecified), for which the cytotoxicity at 70.5 h was -27.5%.
Turning to `OC1(CN2CCOC(Cn3cncn3)C2)CCCCC1` (stereo unspecified), the cytotoxicity at 70.5 h was 2.37%.
On to `CC(=O)NCc1ccc(C(=O)Nc2ccc3c(c2)C(=O)NC3)cc1`, for which the cytotoxicity at 70.5 h was -2.55%.
As for `CC(C)c1nc(C2CCCNC2)no1` (stereo unspecified), the cytotoxicity at 70.5 h is 14.1%.
In the case of `CN(Cc1nccs1)C1CCN(c2cccc(-c3cscn3)c2)CC1`, the cytotoxicity at 70.5 h came to 10.5%.
As for `COc1ncccc1C(=O)N1CC[C@H]2C[C@H](c3noc(C)n3)O[C@@H]2C1`, the cytotoxicity at 70.5 h is 51.3%.
In the case of `COc1ccc(OCc2sc(C3(O)CCCNCC3)nc2C)cc1` (stereo unspecified), the cytotoxicity at 70.5 h is -10.3%.
On to `CC(C)NC(=O)N1CCc2nc(C(=O)NCc3ccccc3)sc2CC1`, for which the cytotoxicity at 70.5 h was -15.4%.
Take `CS(=O)(=O)c1ccccc1-n1cc(NC(=O)CC(F)(F)F)cn1`: the cytotoxicity at 70.5 h is -4.54%.
Consider `CC(=O)NCCCNCc1cc(F)ccc1Br`, for which the cytotoxicity at 70.5 h was 15%.
For `CC1CCN(C(=O)CN(Cc2ccco2)C2CC2)CC1`, the cytotoxicity at 70.5 h was -9.01%.
With `COc1cccc(CN2CCCC(Nc3cccc(F)c3)C2)c1O` (stereo unspecified), the cytotoxicity at 70.5 h was -4.92%.
Consider `Cn1nc(CO)c2c1CCN(c1ncnc3c1CCNCC3)C2`, for which the cytotoxicity at 70.5 h was -6.13%.
Take `COC1CCN(S(=O)(=O)NCC2COc3ccccc3C2)CC1` (stereo unspecified): the cytotoxicity at 70.5 h is -4.76%.
As for `Cc1ccc(CN2C[C@H](OCC3CCN(C)CC3)[C@H]3COC[C@H]32)o1`, the cytotoxicity at 70.5 h was 4.22%.
